This note sets out measurements from ChEMBL document CHEMBL5223079, “Progress toward B-Cell Lymphoma 6 BTB Domain Inhibitors for the Treatment of Diffuse Large B-Cell Lymphoma and Beyond” (J Med Chem, 2021).

The target of one data set is BCL-6/NCOR2 (Homo sapiens, UniProt P41182). The data set is described as follows: Inhibition of BCL6/SMRT protein protein interaction (unknown origin) by TR-FRET assay. A general note: TR-FRET usually uses a lanthanide donor and a delayed reading to cut background.
For a further data set, the system named is DOHH-2. Put plainly: cells. The conditions noted are these: Homo sapiens.
For data set [1], the system named is SUD4. The data set is described as follows: Decrease in number of living cells in human SUDHL4 cells at 0.625 uM incubated for 48 hrs by flow cytometry (reference value: 48%). The arrangement: scale not given: the % may be the effect or the level left.
Data set [2] concerns SUD4. The data set is described as follows: Antitumor activity against CD69 human SU-DHL-4 cells xenografted in mouse assessed as increase in mRNA expression at 5 mg/kg, administered daily for 3days by RT-PCR analysis. The data set is classed as functional. Background: Xenograft models place foreign cells or tissue in a host animal.
A short description of data set [3]: Metabolic stability in human liver microsome assessed as half life. The data set is classed as ADME. The conditions noted are these: liver microsomes.
The test system of data set [4] is SUD4. The data set is described as follows: Decrease in number of living cells in human SUDHL4 cells at […] incubated for 48 hrs by EdU flow cytometry assay (reference value: 48%). The arrangement: scale not given: the % may be the effect or the level left. The conditions noted are these: dose 2.5 µM.
The subject of data set [5] is SUD4. Put plainly: Antitumor activity against ATR human SU-DHL-4 cells xenografted in mouse assessed as increased in mRNA expression at 5 mg/kg, administered daily for 3days by RT-PCR analysis. Type of data set: functional.
Data set [6] has as its system SUD4. The data set is described as follows: Antitumor activity against human SU-DHL-4 cells xenografted in mouse assessed as reduction in tumor weight at 5 mg/kg, iv treated every other day for 3 days. The data set is classed as functional. The arrangement: scale not given: the % may be the effect or the level left. Particulars: time 3 day.
A further data set has as its system Farage. Put plainly: cells. Particulars: Homo sapiens.
A short description of data set [7]: Intrinsic clearance in mouse microsomes. The data set is classed as ADME, Microsome.
Data set [8] concerns SUD4. Put plainly: Decrease in number of living cells in human SUDHL4 cells at 1.25 uM incubated for 48 hrs by EdU flow cytometry assay (reference value: 48%). The arrangement: scale not given: the % may be the effect or the level left.
Data set [9] relates to SUD4. The data set is described as follows: Antitumor activity against human SU-DHL-4 cells xenografted in mouse assessed as reduction in tumor volume at 5 mg/kg, iv treated every other day for 3 days. Type of data set: functional. Also noted: scale not given: the % may be the effect or the level left. The conditions noted are these: time 3 day.
For a further data set, the system named is Toledo. The data set is described as follows: cells. The conditions noted are these: Homo sapiens.
In data set [10] the test system is SUD4. The data set is described as follows: cells. The conditions noted are these: Homo sapiens, SU-DHL-4.
Description: Antiproliferative activity against BCL-6 dependent human SU-DHL-4 cells by CCK-8 assay
Data set [11] has as its system SUD4. The data set is described as follows: Antitumor activity against CXCR4 human SU-DHL-4 cells xenografted in mouse assessed as increase in mRNA expression at 5 mg/kg, administered daily for 3days by RT-PCR analysis. The data set is classed as functional.
A short description of data set [12]: Intrinsic clearance in mouse liver. Type of data set: ADME, tissue-based. The conditions noted are these: read-out: CLH.
Another data set relates to OCI-Ly7. Put plainly: cells. Particulars: Homo sapiens.
Data set [13] in a line: Aqueous solubility of the compound. The data set is classed as physicochemical. The conditions noted are these: buffer.
For data set [14], the target named is B-cell lymphoma 6 protein (Homo sapiens, UniProt P41182). Put plainly: Inhibition of human BCL6 […] domain.
The nature of data set [15]: Oral bioavailability in SCID mouse plasma at 100 mg/kg. Type of data set: ADME, organism-based.
Data set [16] in a line: Oral bioavailability in SCID mouse plasma at 10 mg/kg. The data set is classed as ADME, organism-based. The arrangement: dose 10 mg/kg, route po.
Data set [17] can be described thus: Plasma clearance in Balb/C mouse at 1 mg/kg, po or 5 mg/kg, iv. Type of data set: ADME, organism-based. The conditions noted are these: in vivo.

≈ marks a conversion by molar mass, not a printed value.

Description for DOHH-2: Antiproliferative activity against BCL-6 dependent human DOHH-2 cells by CCK-8 assay
Description for Farage: Antiproliferative activity against BCL-6 dependent human Farage cells by CCK-8 assay
Description for OCI-Ly7: Antiproliferative activity against BCL-6 dependent human OCILY7 cells by CCK-8 assay
Description for Toledo: Antiproliferative activity against BCL-6 independent human Toledo cells by CCK-8 assay

By IC50 is commonly meant the concentration at which inhibition is half-maximal. With `COc1ccc(Nc2nc(NCC(C)C)ncc2F)cc1Cl`, at BCL-6/NCOR2, the IC50 amounted to 19 µM.

As usually defined, the half-life is the time needed for the level to fall by half in the phase considered. Usually microsomal CLint stands for the rate of metabolic loss divided by the concentration. In the case of `COc1cc(Nc2nc(N3C[C@@H](C)N[C@@H](C)C3)ncc2F)ccc1NC(=O)c1ccc(C2=CCCC2)s1`, the IC50 is 1000 nM in the data set with DOHH-2; 1000 nM in the data set with Farage; 3.3 µM in the data set with Toledo; 1000 nM in the data set with SUD4 [10]; 1000 nM in the data set on OCI-Ly7. Moreover, the Activity in the data set with SUD4 [1] is reported as 27%; with SUD4 [2] it was above 150%; with SUD4 [4] it was 6.6%; with SUD4 [5], above 200%; in the data set with SUD4 [6] it was 70%; in the data set on SUD4 [8] it was 13%. Further, the figures for the Activity in the data set on SUD4 [9] and in the data set on SUD4 [11] were 60% and above 60%, respectively. Also, the half-life in [3] was above 60 min. The compound also returned a microsomal CLint in [7] below 9.6 µL/min/mg. Besides, the CLint scaled in [12] is below 38 mL/min/kg.

The term solubility denotes how much of the substance goes into solution per volume. In data set [13], `Cn1c(=O)n(C)c2cc(Nc3ncccc3C#N)ccc21` returned a solubility of 300 µM (≈ 83.8 µg/mL).

In [14], `CNC(=O)COc1cc2cc(Nc3nc(N4CCC(C(=O)N(C)C)CC4)ncc3Cl)cc(OC)c2n(C)c1=O` showed an IC50 of at most 3 nM.

`N#Cc1c(NCC2CC2)ccnc1Cl` had a solubility in data set [13] of 300 µM (≈ 62.3 µg/mL).

In turn, `N#Cc1c(NCc2ccccc2)ccnc1Cl` returned a solubility in data set [13] of 60 µM (≈ 14.6 µg/mL).

Usually Cmax stands for the maximum level reached in the sampled fluid or tissue. By AUC is commonly meant concentration integrated over time. `CNC(=O)COc1cc2cc(Nc3nc(N4C[C@H](C)C[C@H](C)C4)ncc3Cl)ccc2n(C)c1=O`: the Cmax in data set [15] was 599 nM; in data set [16], 193 nM. This compound also returned an area under the curve (AUC) in [16] of 1.86 µM·h. In data set [14], this compound yielded an IC50 of at most 3 nM.

The compound `Cn1c(=O)n(C)c2cc(Nc3cc(SCc4ccccc4)ncn3)ccc21` came in with a solubility in data set [13] below 30 µM.

`C[C@@H]1CN(c2ncc(Cl)c(Nc3ccc4c(c3)n(CCC(C)(C)O)c(=O)n4C)n2)C[C@H](C)C1(F)F`: the clearance in data set [17] stood at 20 mL/min/kg.
